Earlier results, collected in patent US20220018045A1, “ELECTROSPUN COAXIAL POLYMER FIBERS FOR CONTROLLED INSECT REPELLENT RELEASE” (The Government of the United States of America, as …, priority 2020, published 2022).

Settings: ambient conditions

## CCC(C)OC(=O)N1CCCCC1CCO (stereo not shown) [picaridin, 1-(1-methylpropoxycarbonyl)-2-(2-hydroxyethyl)piperidine]
  vapor pressure: ~3.3×10^−2 Pa
